Experimental data reported in patent publication US6737383B1, “Herbicidal oxadiazolidines” (priority 1999, dated 2004).

Tests used:
rape = test: Test B pre/postemergence rape; assay type: in vivo, Brassica napus
Method in brief: (§1)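 Herbicidal effect was estimated by eye on a ten-point control scale after plants spent twelve to sixteen days in a greenhouse following soil or foliar treatment. Foliar sprays targeted plants at one to four leaves; all doses were formulated in a non-phytotoxic solvent with surfactant.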

soybean = test: Test B pre/postemergence soybean; assay type: in vivo, Glycine max
Method in brief: as §1

crabgrass = test: Test B pre/postemergence crabgrass; assay type: in vivo, Digitaria sanguinalis
Method in brief: as §1

giant foxtail = test: Test B pre/postemergence giant foxtail; assay type: in vivo, Setaria faberii
Method in brief: as §1

pigweed = test: Test B pre/postemergence pigweed; assay type: in vivo, Amaranthus retroflexus
Method in brief: as §1

corn = test: Test B pre/postemergence corn; assay type: in vivo, Zea mays
Method in brief: as §1

surinam grass = test: Test B pre/postemergence surinam grass; assay type: in vivo, Brachiaria decumbens
Method in brief: as §1

wild oat = test: Test B pre/postemergence wild oat; assay type: in vivo, Avena fatua
Method in brief: as §1

sugar beet = test: Test B pre/postemergence sugar beet; assay type: in vivo, Beta vulgaris
Method in brief: as §1

morningglory = test: Test B pre/postemergence morningglory; assay type: in vivo, Ipomoea hederacea
Method in brief: as §1

velvetleaf = test: Test B pre/postemergence velvetleaf; assay type: in vivo, Abutilon theophrasti
Method in brief: as §1

bamyardgrass = test: Test B flood test barnyardgrass; assay type: in vivo, Echinochloa crus-galli
Method in brief: (§2)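 Read-out is a visual response score from 0 (no effect) to 10 (complete control), assigned by comparison with untreated controls. Treatment was applied at the 2-leaf stage, and plants stayed in the greenhouse for twelve to sixteen days before scoring.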

smallflower flatsedge = test: Test B flood test smallflower flatsedge; assay type: in vivo, Cyperus difformis
Method in brief: as §2

blackgrass = test: Test B pre/postemergence blackgrass; assay type: in vivo, Alopecurus myosuroides
Method in brief: as §1

cocklebur = test: Test B pre/postemergence cocklebur; assay type: in vivo, Xanthium strumarium
Method in brief: as §1

purple nutsedge = test: Test B pre/postemergence purple nutsedge; assay type: in vivo, Cyperus rotundus
Method in brief: as §1

[1] = Preemergence, Rate 62 g/ha, scale of 0 to 10 where 0 is no effect and 10 is complete control
[2] = Preemergence, Rate 250 g/ha, scale of 0 to 10 where 0 is no effect and 10 is complete control
[3] = Preemergence, Rate 500 g/ha, scale of 0 to 10 where 0 is no effect and 10 is complete control
[4] = Rate 62 g/ha, Postemergence, scale of 0 to 10 where 0 is no effect and 10 is complete control
[5] = Rate 125 g/ha, Postemergence, scale 0 to 10
[6] = Rate 125 g/ha, Preemergence, scale of 0 to 10 where 0 is no effect and 10 is complete control
[7] = Rate 500 g/ha, Postemergence, scale 0 to 10, 0 no effect, 10 complete control
[8] = Rate 62 g/ha, headed Pre-emergence (flood test species), scale 0 to 10 (0 no effect, 10 complete control)
[9] = Rate 125 g/ha, Pre-emergence, flood test species, scale 0 to 10 where 0 is no effect and 10 is complete control
[10] = Rate 250 g/ha, Pre-emergence, flood-test species, scale 0 to 10, 0 is no effect, 10 is complete control
[11] = Rate 500 g/ha, Pre-emergence, flood test species, scale 0 to 10 (0 no effect, 10 complete control)

CON=C(Cn1c(=O)on(C(=O)N(c2ccc(F)cc2)C(C)C)c1=O)C(F)(F)F [Compound 227]
Rape plant response rating (rape; [1]): 0
Rape plant response rating (rape; [2]): 8
Plant response rating, Rape (rape; [3]): 10
Rape plant response rating (rape; [4]): 0
Rape plant response rating (rape; [5]): 0
Rape plant response rating (rape; [6]): 4
Plant response rating (0 to 10; 0 is no effect, 10 is complete control), Rape (rape; Rate 250 g/ha, Postemergence): 0
Rape plant response rating (rape; [7]): 0
Soybean plant response rating (soybean; [1]): 0
Soybean plant response rating (soybean; [2]): 0
Plant response rating, Soybean (soybean; [3]): 2
Soybean plant response rating (soybean; [4]): 1
Soybean plant response rating (soybean; [5]): 3
Soybean plant response rating (soybean; [6]): 0
Plant response rating (0 to 10; 0 is no effect, 10 is complete control), Soybean (soybean; Rate 250 g/ha, Postemergence): 4
Soybean plant response rating (soybean; [7]): 5
Crabgrass plant response rating (crabgrass; [1]): 1
Crabgrass plant response rating (crabgrass; [2]): 10
Plant response rating, Crabgrass (crabgrass; [3]): 10
Crabgrass plant response rating (crabgrass; [4]): 0
Crabgrass plant response rating (crabgrass; [5]): 0
Crabgrass plant response rating (crabgrass; [6]): 10
Plant response rating (0 to 10; 0 is no effect, 10 is complete control), Crabgrass (crabgrass; Rate 250 g/ha, Postemergence): 0
Crabgrass plant response rating (crabgrass; [7]): 3
Giant foxtail plant response rating (giant foxtail; [1]): 9
Giant foxtail plant response rating (giant foxtail; [2]): 10
Plant response rating, Giant foxtail (giant foxtail; [3]): 10
Giant foxtail plant response rating (giant foxtail; [4]): 0
Giant foxtail plant response rating (giant foxtail; [5]): 0
Giant foxtail plant response rating (giant foxtail; [6]): 10
Plant response rating (0 to 10; 0 is no effect, 10 is complete control), Giant foxtail (giant foxtail; Rate 250 g/ha, Postemergence): 0
Giant foxtail plant response rating (giant foxtail; [7]): 0
Redroot pigweed plant response rating (pigweed; [1]): 3
Redroot pigweed plant response rating (pigweed; [2]): 10
Plant response rating, Redroot pigweed (pigweed; [3]): 10
Redroot pigweed plant response rating (pigweed; [4]): 0
Redroot pigweed plant response rating (pigweed; [5]): 2
Redroot pigweed plant response rating (pigweed; [6]): 5
Plant response rating (0 to 10; 0 is no effect, 10 is complete control), Redroot pigweed (pigweed; Rate 250 g/ha, Postemergence): 5
Redroot pigweed plant response rating (pigweed; [7]): 7
Corn plant response rating (corn; [1]): 0
Corn plant response rating (corn; [2]): 0
Plant response rating, Corn (corn; [3]): 0
Corn plant response rating (corn; [4]): 0
Corn plant response rating (corn; [5]): 0
Corn plant response rating (corn; [6]): 0
Plant response rating (0 to 10; 0 is no effect, 10 is complete control), Corn (corn; Rate 250 g/ha, Postemergence): 0
Corn plant response rating (corn; [7]): 0
B. signalgrass plant response rating (surinam grass; [1]): 0
B. signalgrass plant response rating (surinam grass; Preemergence, Rate 250 g/ha, scale 0 to 10, 0 is no effect, 10 is complete control): 0
Plant response rating, B. signalgrass (surinam grass; [3]): 2
B. signalgrass plant response rating (surinam grass; [4]): 0
B. signalgrass plant response rating (surinam grass; Rate 125 g/ha, Postemergence, scale 0 (no effect) to 10 (complete control)): 0
B. signalgrass plant response rating (surinam grass; [6]): 0
Plant response rating (0 to 10; 0 is no effect, 10 is complete control), B. signalgrass (surinam grass; Rate 250 g/ha, Postemergence): 0
B. signalgrass plant response rating (surinam grass; [7]): 0
Wild oats plant response rating (wild oat; [1]): 0
Wild oats plant response rating (wild oat; [2]): 3
Plant response rating, Wild oats (wild oat; [3]): 3
Wild oats plant response rating (wild oat; [4]): 0
Wild oats plant response rating (wild oat; [5]): 0
Wild oats plant response rating (wild oat; [6]): 0
Plant response rating (0 to 10; 0 is no effect, 10 is complete control), Wild oats (wild oat; Rate 250 g/ha, Postemergence): 0
Wild oats plant response rating (wild oat; [7]): 2
Sugarbeets plant response rating (sugar beet; [1]): 2
Sugarbeets plant response rating (sugar beet; [2]): 6
Plant response rating, Sugarbeets (sugar beet; [3]): 8
Sugarbeets plant response rating (sugar beet; [4]): 0
Sugarbeets plant response rating (sugar beet; [5]): 0
Sugarbeets plant response rating (sugar beet; [6]): 3
Plant response rating (0 to 10; 0 is no effect, 10 is complete control), Sugarbeets (sugar beet; Rate 250 g/ha, Postemergence): 3
Sugarbeets plant response rating (sugar beet; [7]): 5
Morningglory plant response rating (morningglory; [1]): 0
Morningglory plant response rating (morningglory; [2]): 0
Plant response rating, Morningglory (morningglory; [3]): 0
Morningglory plant response rating (morningglory; [4]): 4
Morningglory plant response rating (morningglory; [5]): 4
Morningglory plant response rating (morningglory; [6]): 0
Plant response rating (0 to 10; 0 is no effect, 10 is complete control), Morningglory (morningglory; Rate 250 g/ha, Postemergence): 8
Morningglory plant response rating (morningglory; [7]): 10
Velvetleaf plant response rating (velvetleaf; [1]): 0
Velvetleaf plant response rating (velvetleaf; [2]): 0
Plant response rating, Velvetleaf (velvetleaf; [3]): 2
Velvetleaf plant response rating (velvetleaf; [4]): 0
Velvetleaf plant response rating (velvetleaf; [5]): 0
Velvetleaf plant response rating (velvetleaf; [6]): 0
Plant response rating (0 to 10; 0 is no effect, 10 is complete control), Velvetleaf (velvetleaf; Rate 250 g/ha, Postemergence): 0
Velvetleaf plant response rating (velvetleaf; [7]): 3
Barnyardgrass plant response rating (bamyardgrass; [8]): 0
Barnyardgrass plant response rating (bamyardgrass; [9]): 0
Barnyardgrass plant response rating (bamyardgrass; [10]): 0
Barnyardgrass plant response rating (bamyardgrass; [11]): 0
S. Flatsedge plant response rating (smallflower flatsedge; [8]): 0
S. Flatsedge plant response rating (smallflower flatsedge; [9]): 0
S. Flatsedge plant response rating (smallflower flatsedge; [10]): 0
S. Flatsedge plant response rating (smallflower flatsedge; [11]): 0
Blackgrass plant response rating (blackgrass; [1]): 2
Blackgrass plant response rating (blackgrass; [2]): 10
Plant response rating, Blackgrass (blackgrass; [3]): 10
Blackgrass plant response rating (blackgrass; [4]): 0
Blackgrass plant response rating (blackgrass; [5]): 2
Blackgrass plant response rating (blackgrass; [6]): 5
Plant response rating (0 to 10; 0 is no effect, 10 is complete control), Blackgrass (blackgrass; Rate 250 g/ha, Postemergence): 7
Blackgrass plant response rating (blackgrass; [7]): 7
Cocklebur plant response rating (cocklebur; [1]): 0
Cocklebur plant response rating (cocklebur; [2]): 0
Plant response rating, Cocklebur (cocklebur; [3]): 0
Cocklebur plant response rating (cocklebur; [4]): 0
Cocklebur plant response rating (cocklebur; [5]): 0
Cocklebur plant response rating (cocklebur; [6]): 0
Plant response rating (0 to 10; 0 is no effect, 10 is complete control), Cocklebur (cocklebur; Rate 250 g/ha, Postemergence): 2
Cocklebur plant response rating (cocklebur; [7]): 3
Nutsedge plant response rating (purple nutsedge; [1]): 0
Nutsedge plant response rating (purple nutsedge; [2]): 0
Nutsedge plant response rating (purple nutsedge; [4]): 0
Nutsedge plant response rating (purple nutsedge; [5]): 0
Nutsedge plant response rating (purple nutsedge; [6]): 0
Plant response rating (0 to 10; 0 is no effect, 10 is complete control), Nutsedge (purple nutsedge; Rate 250 g/ha, Postemergence): 0
Nutsedge plant response rating (purple nutsedge; [7]): 0
